Assays:
Type in all cases: cell-based
[1] = system: Streptococcus pneumoniae 1175; settings: S. pneumoniae 1175 (mefA); microtiter broth dilution
Protocol: (§1) The assay described herein includes a panel of bacterial strains assembled to include a variety of target pathogenic species, including representatives of macrolide resistance mechanisms that have been characterized. In many cases, both the macrolide-susceptible parent strain and the macrolide-resistant strain derived from it are available to provide a more accurate assessment of the compound's ability to circumvent the resistance mechanism. The assay is performed in microtiter trays and interpreted according to Performance Standards for Antimicrobial Susceptibility Testing; 14th Informational Supplement (M100-S14), published by The National Committee for Clinical Laboratory Standards (NCCLS) guidelines; the MIC is used to compare strains. Compounds are initially dissolved in DMSO as 40 mg/ml stock solutions.

[2] = system: Streptococcus pneumoniae 1095; settings: S. pneumoniae 1095 (ermB); microtiter broth dilution
Protocol: as §1

[3] = system: Streptococcus pneumoniae 1016; assay: MIC, microtiter broth dilution (NCCLS M100-S14), S. pneumoniae 1016 (susceptible); settings: S. pneumoniae 1016 (susceptible)
Protocol: as §1

[4] = system: Streptococcus pyogenes 1079; assay: MIC, microtiter broth dilution (NCCLS M100-S14), S. pyogenes 1079 (ermB); settings: S. pyogenes 1079 (ermB)
Protocol: as §1

SMILES | MIC S. pneumo. 1175 [1] | MIC S. pneumo. 1095 [2] | MIC S. pneumo. 1016 [3] | MIC S. pyogenes 1079 [4]
CC[C@H]1OC(=O)[C@H](C)C(=O)[C@H](C)[C@@H](O[C@@H]2O[C@H](C)C[C@H](N(C)C)[C@H]2O)[C@](C)(OC)C[C@@H](C)C(=O)[C@H](C)[C@H]2N(CC3(C)CN(C(=O)c4cnc5ccccc5c4)C3)C(=O)O[C@]12C.O=CO [6.12] | 0.12 µg/mL | 0.25 µg/mL | <0.06 µg/mL | >64.00 µg/mL
CC[C@H]1OC(=O)[C@H](C)C(=O)[C@H](C)[C@@H](O[C@@H]2O[C@H](C)C[C@H](N(C)C)[C@H]2O)[C@](C)(OC)C[C@@H](C)C(=O)[C@H](C)[C@H]2N(CC3(C)CN(C(=O)c4ccnc5ccccc45)C3)C(=O)O[C@]12C.O=CO [6.13] | <0.06 µg/mL | 8 µg/mL | <0.06 µg/mL | >64.00 µg/mL
CC[C@H]1OC(=O)[C@H](C)C(=O)[C@H](C)[C@@H](O[C@@H]2O[C@H](C)C[C@H](N(C)C)[C@H]2O)[C@](C)(OC)C[C@@H](C)C(=O)[C@H](C)[C@H]2N(CC3(C)CN(C(=O)c4cccc5ncccc45)C3)C(=O)O[C@]12C.O=CO [6.14] | 0.25 µg/mL | 8 µg/mL | <0.06 µg/mL | >64.00 µg/mL
CC[C@H]1OC(=O)[C@H](C)C(=O)[C@H](C)[C@@H](O[C@@H]2O[C@H](C)C[C@H](N(C)C)[C@H]2O)[C@](C)(OC)C[C@@H](C)C(=O)[C@H](C)[C@H]2N(CC3(C)CN(C(=O)c4ccc5ncccc5c4)C3)C(=O)O[C@]12C.O=CO [6.15] | 2 µg/mL | 8 µg/mL | <0.06 µg/mL | >64.00 µg/mL
CC[C@H]1OC(=O)[C@H](C)C(=O)[C@H](C)[C@@H](O[C@@H]2O[C@H](C)C[C@H](N(C)C)[C@H]2O)[C@](C)(OC)C[C@@H](C)C(=O)[C@H](C)[C@H]2N(CC3(C)CN(C(=O)c4ccc5cccnc5c4)C3)C(=O)O[C@]12C.O=CO [6.16] | 0.12 µg/mL | 0.12 µg/mL | <0.06 µg/mL | >64.00 µg/mL
CC[C@H]1OC(=O)[C@H](C)C(=O)[C@H](C)[C@@H](O[C@@H]2O[C@H](C)C[C@H](N(C)C)[C@H]2O)[C@](C)(OC)C[C@@H](C)C(=O)[C@H](C)[C@H]2N(CC3(C)CN(C(=O)c4cccc5cccnc45)C3)C(=O)O[C@]12C.O=CO [6.17] | 0.12 µg/mL | >64.00 µg/mL | <0.06 µg/mL | >64.00 µg/mL
CC[C@H]1OC(=O)[C@H](C)C(=O)[C@H](C)[C@@H](O[C@@H]2O[C@H](C)C[C@H](N(C)C)[C@H]2O)[C@](C)(OC)C[C@@H](C)C(=O)[C@H](C)[C@H]2N(CC3(C)CN(C(=O)c4nc5ccccc5[nH]4)C3)C(=O)O[C@]12C.O=CO [6.18] | 0.25 µg/mL | 0.25 µg/mL | <0.06 µg/mL | >64.00 µg/mL
CC[C@H]1OC(=O)[C@H](C)C(=O)[C@H](C)[C@@H](O[C@@H]2O[C@H](C)C[C@H](N(C)C)[C@H]2O)[C@](C)(OC)C[C@@H](C)C(=O)[C@H](C)[C@H]2N(CC3(C)CN(C(=O)c4ccc5ncsc5c4)C3)C(=O)O[C@]12C.O=CO [6.19] | 0.5 µg/mL | 1 µg/mL | <0.06 µg/mL | >64.00 µg/mL
CC[C@H]1OC(=O)[C@H](C)C(=O)[C@H](C)[C@@H](O[C@@H]2O[C@H](C)C[C@H](N(C)C)[C@H]2O)[C@](C)(OC)C[C@@H](C)C(=O)[C@H](C)[C@H]2N(CC3(C)CN(C(=O)c4cncc5ccccc45)C3)C(=O)O[C@]12C.O=CO [6.20] | 0.5 µg/mL | 64 µg/mL | <0.06 µg/mL | >64.00 µg/mL
CC[C@H]1OC(=O)[C@H](C)C(=O)[C@H](C)[C@@H](O[C@@H]2O[C@H](C)C[C@H](N(C)C)[C@H]2O)[C@](C)(OC)C[C@@H](C)C(=O)[C@H](C)[C@H]2N(CC3(C)CN(C(=O)c4cccc(-n5cccn5)n4)C3)C(=O)O[C@]12C.O=CO [6.21] | 0.5 µg/mL | 16 µg/mL | <0.06 µg/mL | >64.00 µg/mL

From patent US7462600B2, “Macrolides” (Pfizer Inc, priority 2004, dated 2008)
